From patent US20210220356A1, “DIHYDROPYRIMIDINE DERIVATIVES AND USES THEREOF IN THE TREATMENT OF HBV INFECTION OR OF HBV-INDUCED DISEASES” (Janssen Sciences Ireland Unlimited Company, priority 2018, published 2021)

Assays:
[1] = system: HBV; assay: HBV inhibitory activity in HepG2.2.15 cells (HBV DNA in culture medium by q-PCR); type: cell-based; settings: HepG2.2.15 cells, 40,000 cells/well, 6 days of compound treatment, HBV DNA in culture medium by q-PCR, highest concentration 10 uM; read-out: EC50
Protocol: (§1) • HepG2.2.15 (the HepG2.2.15 cell line can be produced by transfection of the HepG2 cell line as described in Sells, Chen, and Acs 1987 (Proc. Natl. Acad. Sci. USA 84: 1005-1009), and the HepG2 cell line is available from ATCC® under number HB-8065™)
(§2) Seed the cell HepG2.2.15 cells into 96-well plate in 2% FBS culture medium at the density of 40,000 cells/well and 5,000 cells/well for HBV inhibitory activity and cytotoxicity determination, respectively. After seeding, incubate the cell plates at 37° C., 5% CO2 overnight. The next day, medium containing compounds is added to the cell to treat the cells for 6 days with medium refreshed once in the middle of the treatment. 8 dose points with 3 folds dilution of each compound were adopted and the highest concentration of the compounds is 10 uM and 100 uM for HBV inhibitory activity and cytotoxicity determination, respectively.
The HBV DAN change in the cell culture medium induced by the compounds is measured by q-PCR method. Briefly, the HBV DNA in the culture medium is extracted using QIAamp 96 DNA Blood Kit according to the manual and then quantified by q-PCR using the primers and probe in the table below.
(§3) EC50 and CC50 values are calculated by the GRAPHPAD PRISM software.

[2] = system: HepG2.2.15 cells; assay: Cytotoxicity determination in HepG2.2.15 cells (CCK-8); type: cell-based; settings: HepG2.2.15 cells, 5,000 cells/well, 6 days of compound treatment, CCK-8 absorbance 450 nm, highest concentration 100 uM
Protocol: as §1, §2
After 6 days of compounds treatment, add 20 μl CCK-8 reagents to each well of cytotoxicity assay plates, incubate the plate at 37° C., 5% CO2 for 2.5 h and measure the absorbance at 450 nm wavelength, at the same time read the absorbance at 630 nm wavelength as reference.
as §3

| Compound | EC50 [1] [µM] | CC50 [2] [µM] |
| --- | --- | --- |
| CCOC(=O)C1=C(C2CCc3nn(CCC(=O)O)cc3C2)NC(c2nccs2)=NC1c1ccc(F)c(F)c1Cl (single isomer, unassigned) [Compound 34c, 3-(5-(6-(2-chloro-3,4-difluorophenyl)-5-(ethoxycarbonyl)-2-(thiazol-2-yl)-3,6-dihydropyrimidin-4-yl)-4,5,6,7-tetrahydro-2H-indazol-2-yl)propanoic acid] | < 0.0046 | 14.9 |
| CCOC(=O)C1=C(C2CCc3nn(CCC(=O)O)cc3C2)NC(c2nccs2)=NC1c1ccc(F)c(F)c1Cl (single isomer, unassigned) [Compound 34d, 3-(5-(6-(2-chloro-3,4-difluorophenyl)-5-(ethoxycarbonyl)-2-(thiazol-2-yl)-3,6-dihydropyrimidin-4-yl)-4,5,6,7-tetrahydro-2H-indazol-2-yl)propanoic acid] | 0.146 | 20.6 |
| CCOC(=O)C1=C(C2CCc3nn(CCC(=O)O)cc3C2)NC(c2nccs2)=NC1c1ccc(F)c(F)c1C (single isomer, unassigned) [Compound 35c, 3-(5-(6-(3,4-Difluoro-2-methylphenyl)-5-(ethoxycarbonyl)-2-(thiazol-2-yl)-3,6-dihydropyrimidin-4-yl)-4,5,6,7-tetrahydro-2H-indazol-2-yl)propanoic acid] | < 0.0046 | 14.4 |
| CCOC(=O)C1=C(C2CCc3nn(CCC(=O)O)cc3C2)NC(c2nccs2)=NC1c1ccc(F)c(F)c1Br (single isomer, unassigned) [Compound 36b, 3-(5-(6-(2-Bromo-3,4-difluorophenyl)-5-(ethoxycarbonyl)-2-(thiazol-2-yl)-3,6-dihydropyrimidin-4-yl)-4,5,6,7-tetrahydro-2H-indazol-2-yl)propanoic acid] | 0.0965 | 11.7 |
| CCOC(=O)C1=C(C2CCc3nn(CCC(=O)O)cc3C2)NC(c2nccs2)=NC1c1ccc(F)cc1Cl (single isomer, unassigned) [Compound 37c, 3-(5-(6-(2-Chloro-4-fluorophenyl)-5-(ethoxycarbonyl)-2-(thiazol-2-yl)-3,6-dihydropyrimidin-4-yl)-4,5,6,7-tetrahydro-2H-indazol-2-yl)propanoic acid] | 0.0222 | 21.1 |
| CCOC(=O)C1=C(C2CCc3nn(CCC(=O)O)cc3C2)NC(c2nccs2)=NC1c1ccc(F)cc1Cl (single isomer, unassigned) [Compound 37d, 3-(5-(6-(2-Chloro-4-fluorophenyl)-5-(ethoxycarbonyl)-2-(thiazol-2-yl)-3,6-dihydropyrimidin-4-yl)-4,5,6,7-tetrahydro-2H-indazol-2-yl)propanoic acid] | 0.88 | 18.9 |
| CCOC(=O)C1=C(C2CCc3nn(CCC(=O)O)cc3C2)NC(c2nccs2)=NC1c1ccc(F)cc1C (single isomer, unassigned) [Compound 38b, 3-(5-(5-(Ethoxycarbonyl)-6-(4-fluoro-2-methylphenyl)-2-(thiazol-2-yl)-3,6-dihydropyrimidin-4-yl)-4,5,6,7-tetrahydro-2H-indazol-2-yl)propanoic acid] | 0.667 | 22.9 |
| CCOC(=O)C1=C(C2CCc3nn(CCC(=O)O)cc3C2)NC(c2nccs2)=NC1c1ccc(F)cc1C (single isomer, unassigned) [Compound 38c, 3-(5-(5-(Ethoxycarbonyl)-6-(4-fluoro-2-methylphenyl)-2-(thiazol-2-yl)-3,6-dihydropyrimidin-4-yl)-4,5,6,7-tetrahydro-2H-indazol-2-yl)propanoic acid] | 0.0146 | 19.6 |
| CCOC(=O)C1=C(C2CCc3nn(C(C)CC(=O)O)cc3C2)NC(c2nccs2)=NC1c1ccc(F)c(F)c1Cl (single isomer, unassigned) [Compound 52b, 3-(5-(6-(2-chloro-3,4-difluorophenyl)-5-(ethoxycarbonyl)-2-(thiazol-2-yl)-3,6-dihydropyrimidin-4-yl)-4,5,6,7-tetrahydro-2H-indazol-2-yl)butanoic acid] | – | 5.8 |
